Kd data for 24 molecules are collected here from patent US11319299B2, “Substituted carboxamides as inhibitors of WDR5 protein-protein binding” (PROPELLON THERAPEUTICS INC., priority 2016, dated 2022).

The first assay has as its target WDR5 (Homo sapiens (Human), UniProt P61964). Put plainly: Surface Plasmon Resonance (SPR) assay, KD and residence time. Conditions: surface plasmon resonance (SPR) assay; read-out: WDR5 binding affinity (KD). It is filed as binding.
With `C[C@@H]1CN(c2cc(F)c(-c3cncc(OCC4CC4)c3)cc2NC(=O)c2c[nH]c(=O)cc2C(F)(F)F)C[C@H](C)N1C` [Example 156, N-[5-[5-(cyclopropylmethoxy)pyridin-3-yl]-4-fluoro-2-[(3R,5S)-3,4,5-trimethylpiperazin-1-yl]phenyl]-6-oxo-4-(trifluoromethyl)-1H-pyridine-3-carboxamide], the dissociation constant (Kd) (commonly the equilibrium constant for the complex coming apart) is 8.61 nM.

Consider `COc1ccc(C(C)N2CC=C(c3cc(NC(=O)c4c[nH]c(=O)cc4C(F)(F)F)c(N4C[C@@H](C)N(C)[C@@H](C)C4)cc3F)CC2)cc1` (stereo partly drawn) [Example 232, N-[4-fluoro-5-[1-[1-(4-methoxyphenyl)ethyl]-3,6-dihydro-2H-pyridin-4-yl]-2-[(3R,5S)-3,4,5-trimethylpiperazin-1-yl]phenyl]-6-oxo-4-(trifluoromethyl)-1H-pyridine-3-carboxamide], for which the equilibrium dissociation constant (Kd) was determined as 2.72 nM.

As for `CC1COCCN1c1ncc(-c2cc(NC(=O)c3c[nH]c(=O)cc3C(F)(F)F)c(N3C[C@@H](C)N(C)[C@@H](C)C3)cc2F)cn1` (stereo in doubt) [Example 338, N-[4-fluoro-5-[2-[(3R)-3-methylmorpholin-4-yl]pyrimidin-5-yl]-2-[(3S,5R)-3,4,5-trimethylpiperazin-1-yl]phenyl]-6-oxo-4-(trifluoromethyl)-1H-pyridine-3-carboxamide], the equilibrium dissociation constant (Kd) was found to be 2.08 nM.

In the case of `C[C@@H]1CN(c2cc(F)c(C3=CCN(CC4CCOCC4)CC3)cc2NC(=O)c2c[nH]c(=O)cc2C(F)(F)F)C[C@H](C)N1C` [Example 167, N-[4-fluoro-5-[1-(oxan-4-ylmethyl)-3,6-dihydro-2H-pyridin-4-yl]-2-[(3R,5S)-3,4,5-trimethylpiperazin-1-yl]phenyl]-6-oxo-4-(trifluoromethyl)-1H-pyridine-3-carboxamide], the Kd came out at 5.76 nM.

For `C[C@@H]1CN(c2cc(F)c(-c3cnc(N4CCCN(C)CC4)nc3)cc2NC(=O)c2ccc(F)cc2C(F)(F)F)C[C@H](C)N1C` [Example 203, 4-fluoro-N-[4-fluoro-5-[2-(4-methyl-1,4-diazepan-1-yl)pyrimidin-5-yl]-2-[(3R,5S)-3,4,5-trimethylpiperazin-1-yl]phenyl]-2-(trifluoromethyl)benzamide], the Kd is 1.66 nM.

In the case of `CN1CCN(c2cc(F)c(-c3cnc(N4CCOCC4)nc3)cc2NC(=O)c2c[nH]c(=O)cc2C(F)(F)F)CC1(C)C` [Example 225, N-[4-fluoro-5-(2-morpholin-4-ylpyrimidin-5-yl)-2-(3,3,4-trimethylpiperazin-1-yl)phenyl]-6-oxo-4-(trifluoromethyl)-1H-pyridine-3-carboxamide], the Kd was 3000 nM.

On to `C[C@@H]1CN(c2cc(F)c(-c3cnc(N4CCOCC4)nc3)cc2NC(=O)c2cccc(O)c2)C[C@H](C)N1C` [Example 281, N-[4-fluoro-5-(2-morpholin-4-ylpyrimidin-5-yl)-2-[(3R,5S)-3,4,5-trimethylpiperazin-1-yl]phenyl]-3-hydroxybenzamide], for which the Kd turned out to be 29.1 nM.

`C[C@@H]1CN(c2cc(F)c(C3=CCCN(C(=O)N4CCCC4)C3)cc2NC(=O)c2c[nH]c(=O)cc2C(F)(F)F)C[C@H](C)N1C` [Example 374, N-[4-fluoro-5-[1-(pyrrolidine-1-carbonyl)-3,6-dihydro-2H-pyridin-5-yl]-2-[(3R,5S)-3,4,5-trimethylpiperazin-1-yl]phenyl]-6-oxo-4-(trifluoromethyl)-1H-pyridine-3-carboxamide]: the Kd is 1.15 nM.

With `C[C@@H]1CN(c2cc(F)c(C3=CCN(C(=O)OC(C)(C)C)C3)cc2NC(=O)c2cn(C)c(=O)cc2C(F)(F)F)C[C@H](C)N1C` [Example 326, tert-butyl 3-[2-fluoro-5-[[-methyl-6-oxo-4-(trifluoromethyl)pyridine-3-carbonyl]amino]-4-[(3R,5S)-3,4,5-trimethylpiperazin-1-yl]phenyl]-2,5-dihydropyrrole-1-carboxylate], the Kd came out at 3.05 nM.

On to `Cc1cc(C#N)ncc1-c1cc(NC(=O)c2c[nH]c(=O)cc2C(F)(F)F)c(N2C[C@@H](C)N(C)[C@@H](C)C2)cc1F` [Example 269, N-[5-(6-cyano-4-methylpyridin-3-yl)-4-fluoro-2-[(3R,5S)-3,4,5-trimethylpiperazin-1-yl]phenyl]-6-oxo-4-(trifluoromethyl)-1H-pyridine-3-carboxamide], for which the Kd is 8.74 nM.

`C[C@@H]1CN(c2cc(F)c(-c3cnc(N4CCOCC4)nc3)cc2NC(=O)c2ccc(F)cc2)C[C@H](C)N1C` [Example 107, 4-fluoro-N-[4-fluoro-5-(2-morpholin-4-ylpyrimidin-5-yl)-2-[(3R,5S)-3,4,5-trimethylpiperazin-1-yl]phenyl]benzamide]: the dissociation constant Kd came to 137 nM.

For the molecule `C[C@@H]1CN(c2cc(F)c(C3=CCN(c4ncccn4)C3)cc2NC(=O)c2c[nH]c(=O)cc2C(F)(F)F)C[C@H](C)N1C` [Example 335, N-[4-fluoro-5-(1-pyrimidin-2-yl-2,5-dihydropyrrol-3-yl)-2-[(3R,5S)-3,4,5-trimethylpiperazin-1-yl]phenyl]-6-oxo-4-(trifluoromethyl)-1H-pyridine-3-carboxamide], the Kd is 2.56 nM.

The same assay, now with this note: surface plasmon resonance (SPR); read-out: WDR5 binding affinity (KD).
Regarding `C[C@@H]1CN(c2cc(F)c(-c3ccc(F)c(C(N)=O)c3)cc2NC(=O)c2cn(C)c(=O)cc2C(F)(F)F)C[C@H](C)N1C` [Example 589, N-[5-(3-carbamoyl-4-fluorophenyl)-4-fluoro-2-[(3R,5S)-3,4,5-trimethylpiperazin-1-yl]phenyl]-1-methyl-6-oxo-4-(trifluoromethyl)pyridine-3-carboxamide], the Kd is 7.46 nM.

With `C[C@@H]1CN(c2cc(F)c(C3=CCN(c4ccnc(C#N)n4)CC3)cc2NC(=O)c2c[nH]c(=O)cc2C(F)(F)F)C[C@H](C)N1C` [Example 709, N-[5-[1-(2-cyanopyrimidin-4-yl)-3,6-dihydro-2H-pyridin-4-yl]-4-fluoro-2-[(3R,5S)-3,4,5-trimethylpiperazin-1-yl]phenyl]-6-oxo-4-(trifluoromethyl)-1H-pyridine-3-carboxamide], the Kd was 0.72 nM.

Regarding `CC1CN(c2ncc(-c3cc(NC(=O)c4c[nH]c(=O)cc4C(F)F)c(N4C[C@@H](C)N(C)[C@@H](C)C4)cc3F)cn2)CCO1` (stereo in doubt) [Example 397, 4-(difluoromethyl)-N-[4-fluoro-5-[2-[(2R)-2-methylmorpholin-4-yl]pyrimidin-5-yl]-2-[(3S,5R)-3,4,5-trimethylpiperazin-1-yl]phenyl]-6-oxo-1H-pyridine-3-carboxamide], the Kd came to 0.68 nM.

As for `COCCN(C)[C@@H]1CCN(c2cc(F)c(-c3cnc(N4CCOCC4)nc3)cc2NC(=O)c2c[nH]c(=O)cc2C(F)(F)F)C1` [Example 578, N-[4-fluoro-5-(2-morpholin-4-ylpyrimidin-5-yl)-2-[(3R)-3-[2-methoxyethyl(methyl)amino]pyrrolidin-1-yl]phenyl]-6-oxo-4-(trifluoromethyl)-1H-pyridine-3-carboxamide], the Kd was 16.9 nM.

With `C[C@@H]1CN(c2cc(F)c(-c3csc(CN4CCOCC4)n3)cc2NC(=O)c2c[nH]c(=O)cc2C(F)(F)F)C[C@H](C)N1C` [Example 713, N-[4-fluoro-5-[2-(morpholin-4-ylmethyl)-1,3-thiazol-4-yl]-2-[(3R,5S)-3,4,5-trimethylpiperazin-1-yl]phenyl]-6-oxo-4-(trifluoromethyl)-1H-pyridine-3-carboxamide], the dissociation constant Kd came to 2.59 nM.

As for `CC1CN(c2cc(F)c(-c3ccc(C(=O)NC(C)(C)CC(C)(C)C)c(F)c3F)cc2NC(=O)c2ccc(F)cc2C(F)(F)F)CCN1C` (stereo in doubt) [Example 666, 2,3-difluoro-4-[2-fluoro-5-[[4-fluoro-2-(trifluoromethyl)benzoyl]amino]-4-[(3R)-3,4-dimethylpiperazin-1-yl]phenyl]-N-(2,4,4-trimethylpentan-2-yl)benzamide], the Kd turned out to be 117 nM.

Take `CC1CN(c2cc(F)c(-c3ccc(C(N)=O)c(F)c3)cc2NC(=O)c2ccc(F)cc2C(F)(F)F)CCN1C` (stereo in doubt) [Example 555, 2-fluoro-4-[2-fluoro-5-[[4-fluoro-2-(trifluoromethyl)benzoyl]amino]-4-[(3R)-3,4-dimethylpiperazin-1-yl]phenyl]benzamide]: the equilibrium dissociation constant (Kd) came out at 2.94 nM.

With `C[C@@H]1CN(c2cc(F)c(-c3ccc(CN4CCOCC4)s3)cc2NC(=O)c2c[nH]c(=O)cc2C(F)(F)F)C[C@H](C)N1C` [Example 491, N-[4-fluoro-5-[5-(morpholin-4-ylmethyl)thiophen-2-yl]-2-[(3R,5S)-3,4,5-trimethylpiperazin-1-yl]phenyl]-6-oxo-4-(trifluoromethyl)-1H-pyridine-3-carboxamide], the Kd is 3.59 nM.

For the molecule `CC1CN(c2cc(F)c(C3=CCN(C(=O)OC4CC(F)(F)C4)CC3)cc2NC(=O)c2c[nH]c(=O)cc2C(F)F)CCN1C` (stereo in doubt) [Example 703, (3,3-difluorocyclobutyl) 4-[5-[[4-(difluoromethyl)-6-oxo-1H-pyridine-3-carbonyl]amino]-2-fluoro-4-[(3R)-3,4-dimethylpiperazin-1-yl]phenyl]-3,6-dihydro-2H-pyridine-1-carboxylate], the dissociation constant Kd was found to be 1.03 nM.

Consider `C[C@@H]1CN(c2cc(F)c(C3=CCN(C(=O)c4cnccn4)CC3)cc2NC(=O)c2c[nH]c(=O)cc2C(F)(F)F)C[C@H](C)N1C` [Example 573, N-[4-fluoro-5-[1-(pyrazine-2-carbonyl)-3,6-dihydro-2H-pyridin-4-yl]-2-[(3R,5S)-3,4,5-trimethylpiperazin-1-yl]phenyl]-6-oxo-4-(trifluoromethyl)-1H-pyridine-3-carboxamide], for which the Kd was determined as 2.19 nM.

For the molecule `CC(C)OC(=O)N1CCC=C(c2cc(NC(=O)c3c[nH]c(=O)cc3C(F)(F)F)c(N3C[C@@H](C)N(C)[C@@H](C)C3)cc2F)C1` [Example 601, propan-2-yl 5-[2-fluoro-5-[[6-oxo-4-(trifluoromethyl)-1H-pyridine-3-carbonyl]amino]-4-[(3R,5S)-3,4,5-trimethylpiperazin-1-yl]phenyl]-3,6-dihydro-2H-pyridine-1-carboxylate], the equilibrium dissociation constant (Kd) was 0.271 nM.

Take `C[C@@H]1CN(c2cc(F)c(-c3ccnc(C#N)n3)cc2NC(=O)c2c[nH]c(=O)cc2C(F)(F)F)C[C@H](C)N1C` [Example 539, N-[5-(2-cyanopyrimidin-4-yl)-4-fluoro-2-[(3R,5S)-3,4,5-trimethylpiperazin-1-yl]phenyl]-6-oxo-4-(trifluoromethyl)-1H-pyridine-3-carboxamide]: the Kd came out at 2.56 nM.
